Results as given in ChEMBL document CHEMBL1148406, “Inhibition of adenosine deaminase by novel 5:7 fused heterocycles containing the imidazo[4,5-e][1,2,4]triazepine ring system: a structure-activity relationship study” (J Med Chem, 2004).

The compounds below were run against T1, Adenosine deaminase (Bos taurus, UniProt P56658) (assay: Binding affinity towards calf spleen adenosine deaminase was determined).
T1 sequence (P56658 whole entry): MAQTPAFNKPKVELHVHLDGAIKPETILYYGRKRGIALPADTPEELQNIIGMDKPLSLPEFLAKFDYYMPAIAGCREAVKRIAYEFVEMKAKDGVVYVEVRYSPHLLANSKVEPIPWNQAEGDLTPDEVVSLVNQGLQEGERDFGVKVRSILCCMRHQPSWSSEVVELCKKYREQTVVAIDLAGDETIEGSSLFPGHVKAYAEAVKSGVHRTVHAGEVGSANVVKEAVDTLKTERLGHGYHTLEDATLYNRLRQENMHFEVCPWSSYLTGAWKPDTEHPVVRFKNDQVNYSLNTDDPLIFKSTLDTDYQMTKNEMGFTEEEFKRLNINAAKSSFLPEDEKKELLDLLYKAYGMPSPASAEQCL

Row | SMILES | Ki [µM]
1 | COc1ccc(Cn2cnc3c2C(OC)N(C)N(C)C=N3)cc1 (stereo not drawn) | 24
2 | COc1ccc(Cn2cnc3c2C(OC(C)C)N(C)N(C)C=N3)cc1 (stereo not drawn) | 30
3 | COc1ccc(COC2c3c(ncn3Cc3ccc(OC)cc3)N=CN(C)N2C)cc1 (stereo not drawn) | 77
4 | COc1ccc(Cn2cnc3c2C(OCc2cccc(C)c2)N(C)N(C)C=N3)cc1 (stereo not drawn) | 93

Now those with a lower Ki, led by results:

Row | Ki [µM] | SMILES
5 | 23 | COCCOC1c2c(ncn2Cc2ccc(OC)cc2)N=CN(C)N1C (stereo not drawn)
6 | 15 | CCCCOC1c2c(ncn2Cc2ccc(OC)cc2)N=CN(C)N1C (stereo not drawn)
7 | 12 | CCCOC1c2c(ncn2Cc2ccc(OC)cc2)N=CN(C)N1C (stereo not drawn)
8 | 20 | CCOC1c2c(ncn2Cc2ccc(OC)cc2)N=CN(C)N1C (stereo not drawn)
